Consider five molecules from US10513521B2, “Compositions and methods for inhibiting BMP” (The Brigham and Women's Hospital, Inc., priority 2014, dated 2019).

Assay [1] has as its target ALK3 (Homo sapiens, UniProt P36894). The assay can be described thus: TR-FRET enzymatic ALK kinase assay, ALK3. (In general: TR-FRET usually uses a lanthanide donor and a delayed reading to cut background.)
Description: (§1) Briefly, the ALKs enzymatic assay was initiated by dispense 2.5 μl enzyme in 1× kinase reaction buffer. The assay plate was then added with compounds followed by incubation at room temperature for 10 minutes. Then 2.5 μl/well substrate was added.
A short description of assay [2]: Cell-based assay, TGFb1 (Cell IC50).
Assay [3] has as its target T1, ALK5 (Homo sapiens, UniProt P36897).
T1 sequence (P36897 34-503): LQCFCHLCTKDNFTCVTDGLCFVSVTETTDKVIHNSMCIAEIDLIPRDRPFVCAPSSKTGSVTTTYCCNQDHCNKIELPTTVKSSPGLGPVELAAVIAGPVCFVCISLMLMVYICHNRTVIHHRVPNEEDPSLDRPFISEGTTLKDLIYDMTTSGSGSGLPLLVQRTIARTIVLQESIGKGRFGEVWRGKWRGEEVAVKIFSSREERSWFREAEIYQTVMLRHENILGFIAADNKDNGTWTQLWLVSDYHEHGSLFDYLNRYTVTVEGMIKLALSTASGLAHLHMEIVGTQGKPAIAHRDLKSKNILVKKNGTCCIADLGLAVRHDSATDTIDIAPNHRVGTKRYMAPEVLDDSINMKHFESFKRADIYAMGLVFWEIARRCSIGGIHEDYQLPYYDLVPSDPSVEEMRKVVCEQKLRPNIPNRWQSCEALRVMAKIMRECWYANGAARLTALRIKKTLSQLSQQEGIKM
Put plainly: TR-FRET enzymatic ALK kinase assay, ALK5.
Description: Six ALK kinase enzyme assays were developed for determination of compound activities on ALK1, ALK2, ALK3, ALK4, ALK5 and ALK6.
as §1

In assay [4] the target is T2, ALK2 (Homo sapiens, UniProt Q04771).
T2 sequence (Q04771 21-509): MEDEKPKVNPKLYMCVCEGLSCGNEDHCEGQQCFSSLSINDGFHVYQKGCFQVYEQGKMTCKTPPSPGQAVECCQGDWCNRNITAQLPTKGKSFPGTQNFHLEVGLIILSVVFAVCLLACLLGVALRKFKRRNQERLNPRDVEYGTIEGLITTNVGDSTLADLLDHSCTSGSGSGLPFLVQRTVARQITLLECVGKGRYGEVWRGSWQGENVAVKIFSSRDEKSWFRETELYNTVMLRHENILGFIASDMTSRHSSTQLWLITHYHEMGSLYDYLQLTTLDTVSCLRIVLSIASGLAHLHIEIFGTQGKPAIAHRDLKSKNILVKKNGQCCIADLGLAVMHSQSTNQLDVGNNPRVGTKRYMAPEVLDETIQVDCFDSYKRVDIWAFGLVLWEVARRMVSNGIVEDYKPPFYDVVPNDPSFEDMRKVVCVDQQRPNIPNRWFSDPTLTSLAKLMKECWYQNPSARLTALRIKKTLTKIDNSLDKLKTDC
The assay can be described thus: TR-FRET enzymatic ALK kinase assay, ALK2.
Description: as §1

Assay [5] addresses T3, ALK4 (Homo sapiens, UniProt P36896).
T3 sequence (P36896 24-505): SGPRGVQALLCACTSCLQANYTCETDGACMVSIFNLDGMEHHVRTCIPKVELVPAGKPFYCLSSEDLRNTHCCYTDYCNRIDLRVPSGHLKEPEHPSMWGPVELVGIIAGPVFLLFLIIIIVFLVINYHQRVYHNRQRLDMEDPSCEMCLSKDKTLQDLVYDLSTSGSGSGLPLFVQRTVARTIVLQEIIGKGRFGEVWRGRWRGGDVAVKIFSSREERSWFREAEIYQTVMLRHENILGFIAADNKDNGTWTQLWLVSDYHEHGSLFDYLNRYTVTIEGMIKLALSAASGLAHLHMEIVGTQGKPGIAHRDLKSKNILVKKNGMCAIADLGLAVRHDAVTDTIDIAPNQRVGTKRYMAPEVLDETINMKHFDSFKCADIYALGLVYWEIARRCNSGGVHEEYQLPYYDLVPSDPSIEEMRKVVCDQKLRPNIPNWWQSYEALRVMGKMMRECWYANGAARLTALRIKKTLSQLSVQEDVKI
The assay can be described thus: TR-FRET enzymatic ALK kinase assay, ALK4.
Description: as §1

For assay [6], the target named is ALK6 (Homo sapiens, UniProt O00238). The assay can be described thus: TR-FRET enzymatic ALK kinase assay, ALK6.
Sequence of ALK6 (O00238 14-502): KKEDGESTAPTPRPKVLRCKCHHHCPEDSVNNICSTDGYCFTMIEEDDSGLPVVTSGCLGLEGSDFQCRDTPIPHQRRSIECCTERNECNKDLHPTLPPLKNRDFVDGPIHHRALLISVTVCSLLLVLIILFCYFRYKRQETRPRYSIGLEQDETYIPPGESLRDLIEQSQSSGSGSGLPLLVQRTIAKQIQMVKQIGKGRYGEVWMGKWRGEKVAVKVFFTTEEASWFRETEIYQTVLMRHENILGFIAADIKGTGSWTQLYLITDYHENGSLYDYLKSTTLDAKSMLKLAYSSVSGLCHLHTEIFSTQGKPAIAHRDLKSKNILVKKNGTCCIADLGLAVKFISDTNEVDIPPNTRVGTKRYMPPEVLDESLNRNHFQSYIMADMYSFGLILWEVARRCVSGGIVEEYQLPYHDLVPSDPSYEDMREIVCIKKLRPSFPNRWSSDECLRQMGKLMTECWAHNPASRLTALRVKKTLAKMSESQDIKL
Description: as §1
Assay [7] deals with T4, ALK2 (Mus musculus, UniProt P37172).
T4 construct: The C2C12 cell line was selected for the measurement of ALK2 activity using BMP6 as the agonist; host or cells: C2C12
T4 sequence (P37172 21-509): T2 sequence (Q04771 21-509) with M1V, P10Q, L121I, D162E, P310S
Put plainly: HTRF pSMAD1 cell-based ALK2 assay (C2C12 cells, BMP6 as agonist). To be noted: cell-based assay, BMP6; read-out: Cell IC50 BMP6. Summed up:
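Cells pre-starved, plated in 0.1% FBS medium for 4 h, compound added for 30 min, then stimulated 30 min with BMP9 (BAOEC) or BMP6 (C2C12). Phospho-SMAD1 measured by HTRF after overnight room-temperature detection incubation.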

The target in assay [8] is ALK1 (Homo sapiens, UniProt P37023). The assay can be described thus: TR-FRET enzymatic ALK kinase assay, ALK1.
Sequence of ALK1 (P37023 22-503): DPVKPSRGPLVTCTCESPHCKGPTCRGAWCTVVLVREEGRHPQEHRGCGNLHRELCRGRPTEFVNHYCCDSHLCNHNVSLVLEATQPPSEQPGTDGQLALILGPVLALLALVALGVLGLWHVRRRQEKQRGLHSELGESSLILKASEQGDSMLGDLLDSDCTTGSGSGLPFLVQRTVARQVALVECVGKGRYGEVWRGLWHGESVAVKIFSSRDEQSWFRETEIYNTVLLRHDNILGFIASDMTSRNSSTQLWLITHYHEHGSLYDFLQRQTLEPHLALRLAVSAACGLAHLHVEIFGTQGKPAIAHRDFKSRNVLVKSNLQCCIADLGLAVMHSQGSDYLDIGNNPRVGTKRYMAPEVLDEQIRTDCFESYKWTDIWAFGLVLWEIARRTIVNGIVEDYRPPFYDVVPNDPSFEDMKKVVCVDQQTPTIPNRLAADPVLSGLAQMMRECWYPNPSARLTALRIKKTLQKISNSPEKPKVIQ
Description: as §1
Assay [9] has as its target T4, ALK2. Put plainly: In-cell Western ALK2 assay (C2C12 cells, BMP6 as agonist). Type of assay: cell-based. Conditions: read-out: BMP6 ICW. The text has this:
3. In-Cell Western ALK1 and ALK2 Assays in 384-Well Plate Format.
We also optimized cell-based In-cell Western assays for measurements of ALK1 and ALK2 activities that were used to determine compound activities in these two kinases. The cell lines and agonists used were same as described in above cell-based HTRF ALK1 and ALK2 assays. The initial cell plating and compound treatment were also same. The main difference is the detection of phosphorylation status of SMAD1. In t-cell Western assay, the cells were fixed and phosphorylation status of SMAD1 was detected by the ELISA instead of using the HTRF assay kit in above assay.
HyClone Fetal Bovine Serum was obtained from GE healthcare life sciences (Logan, Utah). BMP6 and BMP9 were purchased from R&D System (R&D). Anti-P-SMAD 1/5/8 rabbit mAb and anti-rabbit IgG, HRP-Linked antibody were purchased from Cell Signaling Technology (Danvers, Mass.). BioFX Chemiluminescent Ultra-Sensitive HRP Microwell Substrate ECL Reagent was obtained from SurModics (Edina, Minn.). The compound plates and the white solid MB assay plates were from Greiner Bio-one (Monroe, N.C.).
Similarly as described in above HTRF cell-based assay, this assay was performed in 384 well plate format. […] Pre-starved cells were then plated in 384 well plate in the starvation medium (containing in 0.1% FBS). After 4 hours, compound dilutions in DMSO were added to the assay plate and incubated for 30 minutes. The assay plate was then added with BMP6 for C2C12 cells or BMP9 for BAOEC cells and incubated for 30 minutes.
The cells were washed in the plate washer with PBS and blocked with 2% BSA in PBS for 1 h at room temperature on the rotator. After removing the blocking reagent, the cells were incubated with the anti-p-SMAD1 antibody in 2% BSA in PBS for overnight at 4° C. on rotator. The cells were washed with PBS in the plate washer and incubated with HRP conjugated second antibody in 2% BSA in PBS for 1 hour at room temperature. After a cell wash with PBS, ECL detection reagent was added and the plate was read in the luminesce mode in the ViewLux plate reader.

The structures appear in SMILES notation. Substitutions are numbered along the chain they refer to. Values joined by “and” are separate entries in the source; they are usually repeats but may differ in a detail not shown here. Equal entries are not always repeated.

Sequence of ALK3 (P36894 24-532): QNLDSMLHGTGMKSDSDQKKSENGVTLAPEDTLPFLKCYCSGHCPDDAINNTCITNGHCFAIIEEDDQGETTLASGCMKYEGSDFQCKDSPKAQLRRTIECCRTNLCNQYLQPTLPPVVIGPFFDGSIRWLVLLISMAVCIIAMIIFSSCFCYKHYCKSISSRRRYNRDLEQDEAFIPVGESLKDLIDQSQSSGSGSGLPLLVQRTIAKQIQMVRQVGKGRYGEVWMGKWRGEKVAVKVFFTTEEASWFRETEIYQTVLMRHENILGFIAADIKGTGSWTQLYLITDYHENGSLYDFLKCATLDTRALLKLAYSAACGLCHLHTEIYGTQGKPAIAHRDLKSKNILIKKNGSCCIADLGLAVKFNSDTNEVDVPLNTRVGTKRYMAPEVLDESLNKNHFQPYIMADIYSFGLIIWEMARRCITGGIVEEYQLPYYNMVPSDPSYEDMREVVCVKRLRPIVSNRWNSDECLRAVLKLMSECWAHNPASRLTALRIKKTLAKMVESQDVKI

For `CC(C)(O)c1cccc(-c2cnn3cc(-c4ccc(CCN5CCCCC5)cc4)cnc23)c1` [Compound 99, 2-(3-(6-(4-(2-(piperidin-1-yl)ethyl)phenyl)pyrazolo[1,5-a]pyrimidin-3-yl)phenyl)propan-2-ol], the IC50 in [1] was 2.2 µM; in [2], 46 µM; in [3] it was more than 10 µM; in assay [4], 0.043 µM; in assay [5], more than 10 µM; in assay [6], more than 10 µM. For the same molecule, the IC50 in assay [7] was 0.509 µM; in assay [8] it was 0.25 µM.

In the case of `CC(C)(O)c1cccc(-c2cnn3cc(-c4ccc(C5CCNCC5)cc4)cnc23)c1` [Compound 100, 2-(3-(6-(4-(piperidin-4-yl)phenyl)pyrazolo[1,5-a]pyrimidin-3-yl)phenyl)propan-2-ol], the IC50 in [1] is 3.3 µM; in assay [2], more than 100 µM; in assay [3] it was more than 10 µM; in assay [4], 0.039 µM; in assay [5], more than 10 µM; in assay [6], more than 10 µM. For the same molecule, the IC50 in assay [7] is 0.477 µM; in assay [8] it was 0.12 µM.

Regarding `CC(C)(CN1CCCCC1)Oc1ccc(-c2cnc3c(-c4cccc(S(C)(=O)=O)c4)cnn3c2)cc1` [Compound 101, 6-(4-((2-methyl-1-(piperidin-1-yl)propan-2-yl)oxy)phenyl)-3-(3-(methylsulfonyl)phenyl)pyrazolo[1,5-a]pyrimidine], the IC50 in assay [1] is 2.1 µM; in assay [2], 3.28 µM; in assay [3], more than 10 µM; in assay [4], 0.028 µM; in assay [5] it was 6 µM; in assay [6], more than 10 µM. Moreover, the IC50 in assay [7] is 0.203 µM; in assay [8], 0.067 µM.

Consider `CS(=O)(=O)c1cccc(-c2cnn3cc(-c4ccc(C5CCNC5)cc4)cnc23)c1` (centres unmarked) [Compound 129, 3-(3-(methylsulfonyl)phenyl)-6-(4-(pyrrolidin-3-yl)phenyl)pyrazolo[1,5-a]pyrimidine], for which the IC50 in assay [1] is more than 10 µM; in assay [3] it was more than 10 µM; in assay [4], 0.063 µM; in assay [5], more than 10 µM; in [6], more than 10 µM; in [9] it was 0.58 µM and 0.152 µM. The IC50 in [8] turned out to be 0.49 µM.

For the molecule `CS(=O)(=O)c1cccc(-c2cnn3cc(-c4ccc(C5CCCCN5)cc4)cnc23)c1` (centres unmarked) [Compound 137, 3-(3-(methylsulfonyl)phenyl)-6-(4-(piperidin-2-yl)phenyl)pyrazolo[1,5-a]pyrimidine], the IC50 in [1] is more than 10 µM; in assay [3], more than 10 µM; in assay [4] it was 0.075 µM; in assay [5] it was more than 10 µM; in assay [6], more than 10 µM; in assay [9], 0.15 µM and 0.25 µM. Further, the IC50 in assay [8] was determined as 0.25 µM.
